One data set relates to cucumber seeds. Here is the method: The germination test was performed according to Annex to chapter 5, International Rules for Seed Testing, International Seed Testing Association, Zurich, Switzerland, 1996.
The test system of another data set is Acidovorax citrulli. To be noted: for BFB by PCR method: melon, 1.0% solution, 30 vacuum cycles, sinking fraction, 5000 seeds. Here is the method: The process: 10 kg of seed are added to 45 liters of 1% or 2% Na-Dichloroisocyanurate. The seeds are mixed in the solution for 30 minutes and then washed in running water for 10 minutes and then dried to the original water content.
Three batches of 1 kilograms of this seed lot were put in a 10 liter glass vessel together with 3.0 liters of disinfecting solution comprising of Na-Dichloroisocyanurate at 1.0%. Thirty cycles of vacuum/de-vacuum (each cycle having a duration of 1 to 1.5 minutes) were applied with three different level: (i) level A: full vacuum up to 975-985, (ii) level B: medium level of 740-816 mbar, and (iii) level C: low level of 576-667 mbar. After 40 minutes (i.e. after achieving the 30 cycles of vacuum/de-vacuum) the floating fractions were discarded and the sinking fractions were collected, washed for 40 minutes and dried.
The standard protocol can be obtained from the National Seed Health System, a program authorized by USDA-APHIS and administered by the Iowa State University Seed Science Center to accredit both private and public entities to perform certain activities needed to support the issuance of Federal phytosanitary certificates for the international movement of seed. See page 69 of the May 2014 edition of the “Vegetable Crop Method-Reference Manual B” National Seed Health System available at http://www.seedhealth.org/files/pdfVegetable_Crops.pdf.

This is an account of results in patent US12035716B2, “Treatment for seeds disinfection” (VILMORIN & CIE, priority 2013, dated 2024).

Each structure is given as a SMILES string. Where two headings read alike, the source gives them in different places.

As for `O=c1nc([O-])n(Cl)c(=O)n1Cl.[Na+]` [Na-Dichloroisocyanurate], the Germination % in the data set on cucumber seeds (Na-Dichloroisocyanurate 0.4%, standard disinfection) is recorded as 96%; in the data set with cucumber seeds (Na-Dichloroisocyanurate 0.4%, vacuum infiltration), 100%; in the data set on cucumber seeds (Na-Dichloroisocyanurate 0.75%, vacuum infiltration), 100%; with cucumber seeds (Na-Dichloroisocyanurate 1.5%, vacuum infiltration) it was 100%; with cucumber seeds (Na-Dichloroisocyanurate 2.0%, vacuum infiltration), 100%. For the same molecule, in the data set on Acidovorax citrulli (melon seeds, disinfected twice by standard protocol of example 5 (1% or 2%, 30 minutes)), the “BFB infection after standard disinfection” value was “still found to be BFB infected”. Further, the “BFB by PCR method” value in the data set on Acidovorax citrulli (level A full vacuum up to 975-985), with Acidovorax citrulli (level B 740-816 mbar) and in the data set with Acidovorax citrulli (level C 576-667 mbar) was “negative” each time.
